Converted amounts (≈) assume the structure as drawn. Marks after values point to notes of the source that are not given here.
How the values were obtained:
Format in all cases: physicochemical
[1] = Solubility in organic solvents; conditions: thermodynamic from solid
Procedure: The concentration of CCG-211790 in organic solvents was carried out on a LabTech BlueStar plus UV-Vis spectrophotometer (Hopkinton, MA, USA) using dimethylformamide (DMF) as a reference solvent. UV-Vis absorption spectra were recorded in a wavelength range from 200–500 nm with samples placed in a quartz cuvette. CCG-211790 concentrations in organic solvents were determined based on the absorption of CCG-211790 at characteristic wavelength of 314 nm. Calibration curves were established giving a correlation coefficient more than 0.999. The solubility of CCG-211790 in organic solvents were also determined. CCG-211790 bulk powder was added in excess to 0.1–1 mL of an organic solvent. After ultrasonication for 30 min and incubation for 24 h at room temperature on a shaking platform to reach the saturation status, sample aliquots (0.5 mL) were centrifuged at 10,400 ×g for 10 min, and 10 μL of supernatant was diluted 500–50,000-fold with dimethylformamide (DMF). The saturation solubility of CCG-211790 in various organic solvents was determined via ultraviolet-visible spectrophotometry (UV-Vis) with DMF as the reference solvent.

[2] = Solubility in water containing sodium dodecyl sulfate (SDS); conditions: aqueous with cosolvent or surfactant or cyclodextrin, thermodynamic from solid, 37°C; for solubility at 24 h / solubility at 48 h: 200 rpm; for solubility: mean of 24 and 48 h
Procedure: The concentration of CCG-211790 in deionized water or aqueous solutions was determined using an Agilent series 1100 HPLC system (Agilent Technologies, Santa Clara, CA, USA) equipped with diode array detector. Sample separation was carried out with a Kinetex C18 column (75 mm × 3 mm, particle size 2.6 μm, Phenomenex Inc., Torrance, CA, USA). The mobile phase of acetonitrile-water (50:50, v/v) was used for chromatographic separation. The flow rate was set to 0.5 mL/min, column temperature to 35°C. The absorption was measured at wavelength 255 nm. The injection volume was 30 μL. The retention time of CCG-211790 was 4.9 min. The method detection limit was 0.02 mg/L. Calibration curves were established giving a correlation coefficient >0.9900. The procedure to determine solubility in water with presence of SDS is based on the Paddle Method as described in the U.S. Pharmacopeia <711> on the in vitro dissolution tests with minor revision. To determine the saturation solubility in water containing SDS, CCG-211790 bulk powder was added in excess (around 5 mg of CCG-211790) to 10 mL of SDS solutions with various concentrations (0.5, 1.0 or 2.0% w/v). After incubation for 24–48 h in a shaking incubator at 37°C and 200 rpm to reach saturation status, aliquot (2 mL) of the incubated sample was filtered through a 0.22 μm Millipore filter (Millipore Corp., Billerica, MA, USA). Solutions passing through the filter were collected (0.5 mL) and were diluted 2-fold with acetonitrile. CCG-211790 concentration in SDS solutions was determined by HPLC analysis.

[3] = Effect of pH on CCG-211790 degradation; conditions: for CCG-211790 concentration: 37°C; for chemical stability: twelve weeks
Procedure: The concentration of CCG-211790 in deionized water or aqueous solutions was determined using an Agilent series 1100 HPLC system (Agilent Technologies, Santa Clara, CA, USA) equipped with diode array detector. Sample separation was carried out with a Kinetex C18 column (75 mm × 3 mm, particle size 2.6 μm, Phenomenex Inc., Torrance, CA, USA). The mobile phase of acetonitrile-water (50:50, v/v) was used for chromatographic separation. The flow rate was set to 0.5 mL/min, column temperature to 35°C. The absorption was measured at wavelength 255 nm. The injection volume was 30 μL. The retention time of CCG-211790 was 4.9 min. The method detection limit was 0.02 mg/L. Calibration curves were established giving a correlation coefficient >0.9900. Effect of pH on CCG-211790 degradation was investigated at indicated pH (1–10) over a period of three months. Briefly, pH 1, 2 or 10 were achieved by dissolving CCG-211790 bulk powder in a mixture of acetonitrile and water (25:75, v/v) with the pH being adjusted with hydrochloride acid solution (12 mole/L) or sodium hydroxide solution (15 mole/L). Similarly, pH 3–9 were achieved by dissolving CCG-211790 powder in a mixture of acetonitrile and PBS (25:75, v/v) with the pH also being adjusted with the hydrochloride acid solution or the sodium hydroxide solution. All samples were incubated at 37°C. CCG-211790 concentrations in the mixture solutions were determined via HPLC analysis at predetermined time points (0, 2, 4 and 12 weeks).

[4] = 0.5% (w/v) SDS solution, 0.5% (w/v) SDS
[5] = 1.0% (w/v) SDS solution, 1.0% (w/v) SDS
[6] = 2.0% (w/v) SDS solution, 2.0% (w/v) SDS

## COc1ccc2c(c1)-c1nc(SCC(F)(F)F)n(C)c(=O)c1C(C)(C)C2 [CCG-211790, 9-Methoxy-3,5,5-trimethyl-2-((2,2,2-trifluoroethyl)thio)-5,6-dihydrobenzo[h]quinazolin-4(3H)-one]
[1]; oil or lipid, Canola oil, room temperature, read-out: Solubility
  solubility at 24 h: 24.7 mg/mL (≈ 64.3 mM)
[1]; oil or lipid, Coconut oil, room temperature, read-out: Solubility
  solubility at 24 h: 37.2 mg/mL (≈ 96.8 mM)
[1]; oil or lipid, Oleic acid, room temperature, read-out: Solubility
  solubility at 24 h: 24.1 mg/mL (≈ 62.7 mM)
[1]; oil or lipid, Olive oil, room temperature, read-out: Solubility
  solubility at 24 h: 24.3 mg/mL (≈ 63.2 mM)
[1]; oil or lipid, Peanut oil, room temperature, read-out: Solubility
  solubility at 24 h: 22.3 mg/mL (≈ 58 mM)
[1]; oil or lipid, Safflower oil, room temperature, read-out: Solubility
  solubility at 24 h: 22.7 mg/mL (≈ 59 mM)
[1]; oil or lipid, Sesame oil, room temperature, read-out: Solubility
  solubility at 24 h: 22.7 mg/mL (≈ 59 mM)
[1]; oil or lipid, Sunflower oil, room temperature, read-out: Solubility
  solubility at 24 h: 20 mg/mL (≈ 52 mM)
[1]; oil or lipid, range over the edible oils of Table 2, read-out: solubility in edible oils
  solubility at 24 h: 20 to 37.2 mg/mL (≈ 52 to 96.8 mM)
[1]; organic solvent or mixture, Acetonitrile, room temperature, read-out: Solubility
  solubility at 24 h: 57.6 mg/mL (≈ 150 mM)
[1]; organic solvent or mixture, Dimethyl sulfoxide, room temperature, read-out: Solubility
  solubility at 24 h: 66.7 mg/mL (≈ 174 mM)
[1]; organic solvent or mixture, Dimethylacetamide, room temperature, read-out: Solubility
  solubility at 24 h: 278 mg/mL (≈ 724 mM)
[1]; organic solvent or mixture, Dimethylformamide, room temperature, read-out: Solubility
  solubility at 24 h: 215 mg/mL (≈ 560 mM)
[1]; organic solvent or mixture, Ethanol, room temperature, read-out: Solubility
  solubility at 24 h: 18.2 mg/mL (≈ 47.3 mM)
[1]; organic solvent or mixture, Glycerin, room temperature, read-out: Solubility
  solubility at 24 h: 1.3 mg/mL (≈ 3.38 mM)
[1]; organic solvent or mixture, Isopropyl alcohol, room temperature, read-out: Solubility
  solubility at 24 h: 15.4 mg/mL (≈ 40.1 mM)
[2]; [4]
  solubility at 24 h: 0.0329 mg/mL (≈ 0.0856 mM)
  solubility at 48 h: 0.0268 mg/mL (≈ 0.0697 mM)
  solubility: 0.0299 ± 0.0043 mg/mL (≈ 0.0778 mM)
[2]; [5]
  solubility at 24 h: 0.0685 mg/mL (≈ 0.178 mM)
  solubility at 48 h: 0.0638 mg/mL (≈ 0.166 mM)
  solubility: 0.0661 ± 0.0033 mg/mL (≈ 0.172 mM)
[2]; [6]
  solubility at 24 h: 0.161 mg/mL (≈ 0.42 mM)
  solubility at 48 h: 0.15 mg/mL (≈ 0.389 mM)
  solubility: 0.155 ± 0.0083 mg/mL (≈ 0.405 mM)
[3]; pH 1, 0 week, acetonitrile/water
  CCG-211790 concentration: 11.1 µg/mL
[3]; pH 1, 2 weeks, acetonitrile/water
  CCG-211790 concentration: 9.4 ^* μg/mL
[3]; pH 1, 4 weeks, acetonitrile/water
  CCG-211790 concentration: 7.2 ^** μg/mL
[3]; pH 1, 12 weeks, acetonitrile/water
  CCG-211790 concentration: 2.1 ^** μg/mL
[3]; pH 1, 37°C
  chemical stability: degraded
[3]; pH 2, 0 week, acetonitrile/water
  CCG-211790 concentration: 11.6 µg/mL
[3]; pH 2, 2 weeks, acetonitrile/water
  CCG-211790 concentration: 11.9 µg/mL
[3]; pH 2, 4 weeks, acetonitrile/water
  CCG-211790 concentration: 11.2 ^* μg/mL
[3]; pH 2, 12 weeks, acetonitrile/water
  CCG-211790 concentration: 10.7 ^* μg/mL
[3]; pH 2–10, 37°C
  chemical stability: maintained most chemical stability
[3]; pH 3, 0 week, acetonitrile/PBS
  CCG-211790 concentration: 11.9 µg/mL
[3]; pH 3, 2 weeks, acetonitrile/PBS
  CCG-211790 concentration: 11.9 µg/mL
[3]; pH 3, 4 weeks, acetonitrile/PBS
  CCG-211790 concentration: 11.4 µg/mL
[3]; pH 3, 12 weeks, acetonitrile/PBS
  CCG-211790 concentration: 11.7 µg/mL
[3]; pH 4, 0 week, acetonitrile/PBS
  CCG-211790 concentration: 10.9 µg/mL
[3]; pH 4, 2 weeks, acetonitrile/PBS
  CCG-211790 concentration: 11.4 µg/mL
[3]; pH 4, 4 weeks, acetonitrile/PBS
  CCG-211790 concentration: 11.6 ^* μg/mL
[3]; pH 4, 12 weeks, acetonitrile/PBS
  CCG-211790 concentration: 11.3 µg/mL
[3]; pH 5, 0 week, acetonitrile/PBS
  CCG-211790 concentration: 11.0 µg/mL
[3]; pH 5, 2 weeks, acetonitrile/PBS
  CCG-211790 concentration: 11.3 ^* μg/mL
[3]; pH 5, 4 weeks, acetonitrile/PBS
  CCG-211790 concentration: 11.5 µg/mL
[3]; pH 5, 12 weeks, acetonitrile/PBS
  CCG-211790 concentration: 11.2 µg/mL
[3]; pH 6, 0 week, acetonitrile/PBS
  CCG-211790 concentration: 11.1 µg/mL
[3]; pH 6, 2 weeks, acetonitrile/PBS
  CCG-211790 concentration: 11.4 µg/mL
[3]; pH 6, 4 weeks, acetonitrile/PBS
  CCG-211790 concentration: 11.0 µg/mL
[3]; pH 6, 12 weeks, acetonitrile/PBS
  CCG-211790 concentration: 10.1 µg/mL
[3]; pH 7, 0 week, acetonitrile/PBS
  CCG-211790 concentration: 11.8 µg/mL
[3]; pH 7, 2 weeks, acetonitrile/PBS
  CCG-211790 concentration: 11.2 ^* μg/mL
[3]; pH 7, 4 weeks, acetonitrile/PBS
  CCG-211790 concentration: 10.9 ^* μg/mL
[3]; pH 7, 12 weeks, acetonitrile/PBS
  CCG-211790 concentration: 11.5 µg/mL
[3]; pH 8, 0 week, acetonitrile/PBS
  CCG-211790 concentration: 11.2 µg/mL
[3]; pH 8, 2 weeks, acetonitrile/PBS
  CCG-211790 concentration: 11.2 µg/mL
[3]; pH 8, 4 weeks, acetonitrile/PBS
  CCG-211790 concentration: 11.1 µg/mL
[3]; pH 8, 12 weeks, acetonitrile/PBS
  CCG-211790 concentration: 11.6 µg/mL
[3]; pH 9, 0 week, acetonitrile/PBS
  CCG-211790 concentration: 11.0 µg/mL
[3]; pH 9, 2 weeks, acetonitrile/PBS
  CCG-211790 concentration: 11.3 ^* μg/mL
[3]; pH 9, 4 weeks, acetonitrile/PBS
  CCG-211790 concentration: 11.2 µg/mL
[3]; pH 9, 12 weeks, acetonitrile/PBS
  CCG-211790 concentration: 10.5 µg/mL
[3]; pH 10, 0 week, acetonitrile/water
  CCG-211790 concentration: 10.4 µg/mL
[3]; pH 10, 2 weeks, acetonitrile/water
  CCG-211790 concentration: 11.0 ^* μg/mL
[3]; pH 10, 4 weeks, acetonitrile/water
  CCG-211790 concentration: 10.5 µg/mL
[3]; pH 10, 12 weeks, acetonitrile/water
  CCG-211790 concentration: 10.7 ^* μg/mL

Reference: article PMC7870075, “Physicochemical properties and formulation development of a novel compound inhibiting Staphylococcus aureus biofilm formation” (PLoS ONE, 2021)
